Reference: ChEMBL document CHEMBL1151145, “Minor Bioactive Polyacetylenes from Petrosia ficiformis” (J Nat Prod, 1990)
Values after ≈ are worked out from the molar mass of the structure shown.

Tested on: Agrobacterium tumefaciens
Assay: Inhibition of Agrobacterium tumefaciens-induced tumor formation in potato at 0.5 mg/ml by antitumor potato disk assay
Format: functional
Conditions: not given

SMILES	inhibition at 500 µg/mL [%]
C#C/C=C\CCCCCCCCCCCCCC/C=C\CC/C=C/C#CC(O)C#CCCCC/C=C\CCCCCC/C=C/C(O)C#C (stereo unspecified)	43
C#CCCCCCCCCCCCCCCCC/C=C\CC/C=C/C#C[C@@H](O)C#CCCCC/C=C\CCCCCC/C=C/[C@H](O)C#C [PETROFORMYNE 3]	49
C#C[C@@H](O)/C=C/CCCCCC/C=C\CCCCC#C[C@H](O)C#C/C=C/CC/C=C\CCCCCCCCCCCCC/C=C/[C@H](O)C#C [PETROFORMYNE 1]	35
C#CC(O)/C=C/CC/C=C\CCCC/C=C\CCC#CC(O)C#C/C=C/CC/C=C\CCCCCCCCCCCCC/C=C/C(O)C#C (stereo unspecified)	15

Tested on: not listed separately
Assay: Toxicity against Artemia salina after 24 hrs
Format: organism-based
Conditions: in vivo

SMILES	LC50 at 24 h [µg/mL]
C#CCCCCCCCCCCCCCCCC/C=C\CC/C=C/C#CC(O)C#CCCCC/C=C\CCCCCC/C=C/C(=O)C#C (stereo unspecified) [PETROFORMYNE 6]	0.12 (≈ 0.184 µM)
C#C/C=C\CCCCCCCCCCCCCC/C=C\CC/C=C/C#CC(O)C#CCCCC/C=C\CCCCCC/C=C/C(O)C#C (stereo unspecified)	0.0075 (≈ 0.0115 µM)
C#CC(O)/C=C/CCCCCCCCCCCCCCCCCCCCCCCCCCCCCCCCC/C=C\C#CC(=O)OC (stereo unspecified)	0.002 (≈ 0.00306 µM)
C#CCCCCCCCCCCCCCCCC/C=C\CC/C=C/C#C[C@@H](O)C#CCCCC/C=C\CCCCCC/C=C/[C@H](O)C#C [PETROFORMYNE 3]	0.003 (≈ 0.00458 µM)
C#C/C=C\CCCCCCCCCCCCCC/C=C\CC/C=C/C#CC(O)C#CCCCC/C=C\CCCCCC/C=C/C(=O)C#C (stereo unspecified)	0.04 (≈ 0.0614 µM)
C#C[C@@H](O)/C=C/CCCCCC/C=C\CCCCC#C[C@H](O)C#C/C=C/CC/C=C\CCCCCCCCCCCCC/C=C/[C@H](O)C#C [PETROFORMYNE 1]	0.014 (≈ 0.0209 µM)
C#CC(O)/C=C/CC/C=C\CCCC/C=C\CCC#CC(O)C#C/C=C/CC/C=C\CCCCCCCCCCCCC/C=C/C(O)C#C (stereo unspecified)	0.009 (≈ 0.0135 µM)
C#CC(O)/C=C/CCCCCCCCCCCCCCCCCCCCCCCCCCCCCCCCCCC/C=C\C#CC(=O)OC (stereo unspecified) [PETROFORMYNE B]	0.0025 (≈ 0.00367 µM)

Tested on: not listed separately
Assay: Inhibition of sea urchin egg development after 48 hrs
Conditions: echinoidea, sea urchin eggs

SMILES	LC50 at 48 h [µg/mL]
C#C/C=C\CCCCCCCCCCCCCC/C=C\CC/C=C/C#CC(O)C#CCCCC/C=C\CCCCCC/C=C/C(O)C#C (stereo unspecified)	50 (≈ 76.6 µM)
C#CCCCCCCCCCCCCCCCC/C=C\CC/C=C/C#C[C@@H](O)C#CCCCC/C=C\CCCCCC/C=C/[C@H](O)C#C [PETROFORMYNE 3]	10 (≈ 15.3 µM)
C#C[C@@H](O)/C=C/CCCCCC/C=C\CCCCC#C[C@H](O)C#C/C=C/CC/C=C\CCCCCCCCCCCCC/C=C/[C@H](O)C#C [PETROFORMYNE 1]	10 (≈ 14.9 µM)
C#CC(O)/C=C/CC/C=C\CCCC/C=C\CCC#CC(O)C#C/C=C/CC/C=C\CCCCCCCCCCCCC/C=C/C(O)C#C (stereo unspecified)	1 (≈ 1.5 µM)
